Experimental data: ChEMBL document CHEMBL1201862, “PubChem BioAssay data set” (2004)
Calls of active or inactive are those of the source.

Tests used:
[1] = inhibitors of clade B AD8 Env fusion, dose response, cell-based, cherry-pick (AID 652062); type: functional;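 note: luciferase signal from cell-cell fusion driven by HIV-1 clade B AD8 Env; potency is for inhibitors of fusion seen as a drop in luminescence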
[2] = ZM109 Env clade C HIV-1 fusion inhibitors, dose response, HeLa effector, CEM target cells, luciferase, cherry-pick (AID 652058); type: functional, cell-based
[3] = molecular target: T1, DNA repair protein RAD52 homolog (Homo sapiens, UniProt P43351); type: functional, biochemical
T1 sequence (P43351 whole entry): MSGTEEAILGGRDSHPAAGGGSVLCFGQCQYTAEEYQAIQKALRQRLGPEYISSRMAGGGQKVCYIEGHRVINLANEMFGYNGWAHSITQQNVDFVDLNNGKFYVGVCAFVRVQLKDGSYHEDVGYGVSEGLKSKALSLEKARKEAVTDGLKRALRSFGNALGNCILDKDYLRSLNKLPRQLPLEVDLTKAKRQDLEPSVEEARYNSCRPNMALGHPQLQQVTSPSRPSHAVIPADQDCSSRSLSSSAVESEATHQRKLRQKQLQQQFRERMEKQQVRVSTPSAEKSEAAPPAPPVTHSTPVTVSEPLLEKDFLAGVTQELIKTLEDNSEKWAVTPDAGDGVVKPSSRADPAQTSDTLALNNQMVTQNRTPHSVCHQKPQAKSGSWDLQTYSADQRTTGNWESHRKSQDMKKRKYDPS

[4] = THP-1 cell cytotoxicity, dose response, cytotoxicity control for non-replicating M. tuberculosis project (AID 489025); type: functional
Streptococcus = test: Group A Streptococcus viability loss, dose response, counter-screen for streptokinase expression inhibitor project, luminescence, BacTiterGlo (AID 1915); type: functional, organism-based;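 note: potency for reduction of bacterial viability or growth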
[5] = system: Streptococcus sp. 'group A'; test: growth inhibition of control SK(-) GAS strain, dose response, counter-screen for streptokinase expression inhibitor project, luminescence, kanamycin, BacTiterGlo, confirmation (AID 1900); type: functional, organism-based
cells = type: functional
Genome polyprotein = Genome polyprotein (dengue virus type 2, UniProt P29990); test: Dengue-2 NS5 methyltransferase inhibitors, primary screen, biochemical, confirmation dose response (AID 588689); type: functional
Sequence of Genome polyprotein (P29990 2492-3391 limits assumed): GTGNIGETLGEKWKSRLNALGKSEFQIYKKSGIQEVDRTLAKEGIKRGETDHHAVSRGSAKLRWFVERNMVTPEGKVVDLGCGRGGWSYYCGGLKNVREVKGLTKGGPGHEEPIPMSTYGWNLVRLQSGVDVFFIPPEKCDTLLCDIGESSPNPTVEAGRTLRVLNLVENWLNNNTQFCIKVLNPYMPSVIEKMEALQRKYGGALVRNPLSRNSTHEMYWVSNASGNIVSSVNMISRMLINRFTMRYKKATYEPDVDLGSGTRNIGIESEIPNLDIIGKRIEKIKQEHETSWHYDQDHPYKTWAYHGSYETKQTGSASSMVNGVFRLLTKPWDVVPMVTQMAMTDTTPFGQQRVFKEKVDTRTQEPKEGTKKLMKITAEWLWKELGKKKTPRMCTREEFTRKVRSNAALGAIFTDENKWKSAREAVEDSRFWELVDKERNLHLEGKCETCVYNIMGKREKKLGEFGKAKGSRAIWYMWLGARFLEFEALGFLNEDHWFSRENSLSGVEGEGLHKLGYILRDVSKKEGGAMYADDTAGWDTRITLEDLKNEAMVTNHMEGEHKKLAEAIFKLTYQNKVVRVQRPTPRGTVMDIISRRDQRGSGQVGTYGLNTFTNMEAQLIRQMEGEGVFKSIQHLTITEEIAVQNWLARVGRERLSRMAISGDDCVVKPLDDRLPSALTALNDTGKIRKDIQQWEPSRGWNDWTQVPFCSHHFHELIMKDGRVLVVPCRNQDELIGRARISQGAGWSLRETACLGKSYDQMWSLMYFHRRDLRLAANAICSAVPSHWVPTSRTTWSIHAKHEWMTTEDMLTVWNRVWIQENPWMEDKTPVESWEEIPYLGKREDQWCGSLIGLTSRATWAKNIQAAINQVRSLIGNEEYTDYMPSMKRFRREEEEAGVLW

[6] = A Cell Based Secondary Assay To Explore Cytotoxicity of Compounds that Sensitize Mycobacterium Tuberculosis to Beta-Lactam Antibiotics.; type: functional
BJ [7] = test: cytotoxicity toward BJ-TERT fibroblasts, dose response, cell-based, RAS-independent, luminescence (AID 1933); type: functional; settings: Homo sapiens
BJ [8] = test: cytotoxicity toward BJ-TERT-LT-ST fibroblasts, dose response, cell-based, RAS-independent, luminescence (AID 1935); type: functional; settings: Homo sapiens;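 note: BJ fibroblasts immortalized with TERT plus LT and ST oncogenes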
[9] = Luminescence Cell-Based Dose Response HTS to Identify Inhibitors of 5'UTR Stem-Loop Driven Prion Protein mRNA Translation in H4 Neuroglioblastoma Cells. [Related pubchem assays: 1827 (Project Summary), 1813 (Primary HTS)]; type: functional
[10] = cytotoxicity toward DRD oncogenic fibroblasts, dose response, cell-based, non-viral oncogenic, luminescence (AID 1934); type: functional; settings: Homo sapiens
[11] = inhibitors of firefly luciferase expression or activity, dose response, H4 neuroglioma cells, luminescence (AID 1990); type: functional, cell-based
[12] = inhibitors of SNCA 5'UTR-driven reporter translation, confirmation, H4 neuroglioma cells, luminescence (AID 1988); type: functional, cell-based
[13] = cytotoxicity in HEK-293T cells, dose response, cytotoxicity control for TCR NF-kB inhibitor project, luminescence, T-cell screen hits (AID 489026); type: functional, cell-based;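 note: cells exposed to compound about 14 hours before the viability readout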
BJ [14] = test: cells; type: functional, cell-based; settings: Homo sapiens
[15] = molecular target: T2, High affinity choline transporter 1 (Homo sapiens, UniProt Q9GZV3); test: CHT inhibitors, dose response, cell-based, 5-point CRC, membrane potential dye (AID 504840); type: functional
T2 sequence (Q9GZV3 whole entry): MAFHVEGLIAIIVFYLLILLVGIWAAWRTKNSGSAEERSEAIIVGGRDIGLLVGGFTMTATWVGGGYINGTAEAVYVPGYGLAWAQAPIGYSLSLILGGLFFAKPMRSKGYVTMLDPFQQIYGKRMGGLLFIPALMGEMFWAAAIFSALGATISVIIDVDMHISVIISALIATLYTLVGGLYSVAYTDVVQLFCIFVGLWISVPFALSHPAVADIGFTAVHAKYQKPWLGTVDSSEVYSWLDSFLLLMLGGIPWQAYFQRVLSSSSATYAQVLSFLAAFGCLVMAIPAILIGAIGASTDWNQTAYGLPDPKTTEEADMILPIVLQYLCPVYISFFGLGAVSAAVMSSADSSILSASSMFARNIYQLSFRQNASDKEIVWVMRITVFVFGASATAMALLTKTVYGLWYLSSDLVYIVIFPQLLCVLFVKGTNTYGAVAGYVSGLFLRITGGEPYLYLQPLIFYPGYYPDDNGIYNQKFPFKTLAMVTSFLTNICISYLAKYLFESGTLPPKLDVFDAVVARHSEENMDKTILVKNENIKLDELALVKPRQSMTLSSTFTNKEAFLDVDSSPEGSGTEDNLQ

[16] = molecular target: T3, Rac GTPase-activating protein 1 (Homo sapiens, UniProt Q9H0H5); test: MgcRacGAP GTPase-activating activity inhibitors, confirmation, biochemical, ADP Hunter fluorescence, primary and confirmatory (AID 624330); type: functional
T3 sequence (Q9H0H5 whole entry): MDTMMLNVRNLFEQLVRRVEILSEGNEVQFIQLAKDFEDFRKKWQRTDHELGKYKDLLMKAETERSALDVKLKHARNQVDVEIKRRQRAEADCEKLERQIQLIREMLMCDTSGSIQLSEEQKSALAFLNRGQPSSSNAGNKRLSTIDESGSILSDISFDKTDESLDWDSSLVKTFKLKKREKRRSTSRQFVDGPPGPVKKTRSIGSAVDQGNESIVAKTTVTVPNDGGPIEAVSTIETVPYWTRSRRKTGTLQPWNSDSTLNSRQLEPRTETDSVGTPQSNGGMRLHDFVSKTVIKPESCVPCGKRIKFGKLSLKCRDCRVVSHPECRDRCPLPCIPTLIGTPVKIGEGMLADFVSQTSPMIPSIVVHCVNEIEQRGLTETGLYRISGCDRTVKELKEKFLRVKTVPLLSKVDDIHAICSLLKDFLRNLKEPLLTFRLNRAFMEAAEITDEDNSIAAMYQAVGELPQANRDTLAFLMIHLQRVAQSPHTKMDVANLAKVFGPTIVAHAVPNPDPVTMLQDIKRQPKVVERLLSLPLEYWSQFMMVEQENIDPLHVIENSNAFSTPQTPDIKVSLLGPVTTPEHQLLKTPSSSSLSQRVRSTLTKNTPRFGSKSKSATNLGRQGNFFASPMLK

[17] = molecular target: T4, Carboxy-terminal domain RNA polymerase II polypeptide A small phosphatase 1 (Homo sapiens, UniProt Q9GZU7); test: inhibitors of CTDSP1, concentration-response testing, biochemical assay, absorbance-based, actives from ultra-high-throughput screening (AID 540297); type: functional
T4 sequence (Q9GZU7 whole entry): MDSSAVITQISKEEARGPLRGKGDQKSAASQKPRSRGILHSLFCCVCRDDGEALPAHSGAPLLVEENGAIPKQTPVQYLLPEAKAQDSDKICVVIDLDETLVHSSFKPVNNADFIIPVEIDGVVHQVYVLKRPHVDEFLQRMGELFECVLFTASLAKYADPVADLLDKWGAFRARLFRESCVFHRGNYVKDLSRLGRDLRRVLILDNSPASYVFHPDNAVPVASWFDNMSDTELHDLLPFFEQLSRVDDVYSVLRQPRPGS

[18] = A549 cell cytotoxicity, dose response, cytotoxicity control, plate reader, cherry-pick, antagonist series (AID 743412); type: functional, cell-based
[19] = MC4R antagonists, dose response, counter-screen for LGR2 antagonist project, cell-based, plate reader, cherry pick (AID 743444); type: functional;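 note: transfected HEK 293 cells stimulated with alpha-MSH peptide; potency of inhibitors of the alpha-MSH evoked signal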
[20] = LGR2 antagonists, dose response, cell-based, HEK293, CRE-luciferase reporter, cherry pick, set 2 (AID 743343); type: functional;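 note: transfected cells were stimulated with diluted bursicon conditioned medium after compound addition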
[21] = HepG2 cell cytotoxicity, dose response, cytotoxicity control, plate reader, cherry-pick, antagonist series (AID 743416); type: functional, cell-based
[22] = cytotoxicity toward NIH3T3 fibroblasts, dose response, counter-screen, cell-based, ATP luminescence, mouse fibroblasts (AID 2010); type: functional;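 note: cells exposed to compound for about 90 hours before reading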
[23] = HepG2 cell cytotoxicity, dose response, cytotoxicity control for Shn3 inhibitor project, CellTiter-Glo, cherry-picked (AID 624134); type: functional, cell-based
[24] = control 3'UTR Renilla luciferase suppression, dose response, counter-screen for Shn3 inhibitor project, cell-based, Clone20-Shn3RL, cherry-picked (AID 624133); type: functional
[25] = inhibitors of intracellular T. cruzi replication, confirmation, NIH3T3 host cells, beta-gal luminescence (AID 2044); type: functional, cell-based;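 note: intracellular parasites grown in NIH/3T3 mouse fibroblasts as host cells; luminescent beta-galactosidase reporter signal from transgenic T. cruzi replicating inside host cells; inhibitors lower the luminescence signal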
[26] = Shn3 3'UTR reporter inhibitors, dose response, cell-based, Clone20 osteoblasts, firefly luciferase, cherry-picked (AID 624132); type: functional;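 note: firefly luciferase luminescence from reporter carrying the Shn3 3'UTR in osteoblasts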
INS1 = test: beta cell apoptosis inhibitors, cytokine rescue, dose response, luminescence, retest (AID 449756); type: functional, cell-based; settings: Rattus norvegicus;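 note: cell death triggered by IL-1 beta plus TNF-alpha plus IFN-gamma mixture; protective hits raise ATP signal compared with cytokine alone wells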
[27] = molecular target: T5, Heat shock factor protein 1 (Mus musculus, UniProt P38532); test: HSF1 potentiators in luciferase reporter cells, confirmation, cell-based, NIH3T3, luminescence, dose retest (AID 435004); type: functional;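 note: stress induced by proteasome inhibitor MG132 added 30 min after compound; luciferase reporter driven by HSF1 response element in NIH3T3 cells; actives raise luminescence as potentiators of the MG132 stress response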
T5 sequence (P38532 whole entry): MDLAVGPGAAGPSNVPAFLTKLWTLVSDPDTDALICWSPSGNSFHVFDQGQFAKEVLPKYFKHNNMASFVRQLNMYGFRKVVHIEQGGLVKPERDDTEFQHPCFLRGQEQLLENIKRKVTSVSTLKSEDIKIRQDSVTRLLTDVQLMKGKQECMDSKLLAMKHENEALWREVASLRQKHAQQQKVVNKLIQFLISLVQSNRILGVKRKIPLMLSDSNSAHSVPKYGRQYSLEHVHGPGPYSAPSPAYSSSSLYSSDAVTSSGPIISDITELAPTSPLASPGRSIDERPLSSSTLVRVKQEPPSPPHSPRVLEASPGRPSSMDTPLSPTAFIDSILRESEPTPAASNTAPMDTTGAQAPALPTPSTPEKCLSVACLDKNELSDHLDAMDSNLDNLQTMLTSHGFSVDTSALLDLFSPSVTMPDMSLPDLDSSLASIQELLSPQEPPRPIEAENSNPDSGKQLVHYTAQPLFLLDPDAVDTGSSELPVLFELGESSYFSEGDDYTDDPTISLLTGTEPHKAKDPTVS

COc1ccccc1S(=O)(=O)N[C@H]1CC[C@@H](CC(=O)N2CCN(C)CC2)O[C@H]1CO
AC50 [1]: 29.1 µM (active) | AC50 [2]: 0.992 µM (active)

CCN(CC)CCCN(C(=O)c1cccc(C)c1)c1nc(-c2ccc(OC)cc2)cs1
AC50 [3]: 17.2 µM (active)

Cc1ccccc1OCCCCc1c(C)n[nH]c1C
CC50 [4]: > 40 µM (active) | EC50 (Streptococcus): 19 µM (active) | EC50 [5]: 9.02 µM (active) | IC50 (cells): 7 µM (active)

Cc1cc(C)c2nc(N3C(=O)C(O)=C(C(=O)c4ccco4)C3c3ccc(O)cc3)sc2c1 (stereo unspecified)
IC50 (Genome polyprotein): 30.4 µM (active)

O=C(Nc1ccc(C(F)(F)F)cc1)c1cc(-c2cccnc2)nc2ccc(Br)cc12
CC50 [6]: > 40 µM (active)

COc1cc(CC(=O)OCC(=O)c2ccc3c(c2)OCCO3)cc(OC)c1OC
EC50 (BJ [7]): 2.14 µM (active) | EC50 (BJ [8]): 1.62 µM (inconclusive) | EC50 [9]: 5.66 µM (active) | EC50 [10]: 2.47 µM (active) | EC50 [11]: 5.8 µM (inconclusive) | EC50 [12]: 4.99 µM (inconclusive) | IC50 [13]: > 80 µM (inactive) | EC50 (BJ [14]): 15.1 µM (active)

COc1ccc(S(=O)(=O)N[C@@H]2C=C[C@H](CC(=O)N3CCC(Cc4ccccc4)CC3)O[C@@H]2CO)cc1
AC50 [1]: 32.6 µM (active) | AC50 [2]: 19 µM (active)

COc1cc(/C=C2\SC(NS(=O)(=O)Cc3ccccc3)=NC2=O)c([N+](=O)[O-])cc1OC
IC50 [15]: 9.12 µM (active) | IC50 (Genome polyprotein): 55.8 µM (active)

Clc1ccc(CN2C3=NCCCN3c3ccccc32)cc1
CC50 [4]: > 40 µM (active)

O=C1NC(=O)N(c2ccc3c(c2)OCO3)C(=O)/C1=C\c1ccc(-c2ccccc2C(=O)O)o1
IC50 [16]: 75.4 µM (active) | IC50 (Genome polyprotein): > 100 µM (active) | IC50 [17]: 3.9 µM (active)

CCCOc1ccc(F)cc1-c1cc(C(=O)Nc2cc(OC)c(OC)c(OC)c2)[nH]n1
AC50 [18]: > 52 µM (inactive) | AC50 [19]: 31.2 µM (active) | AC50 [20]: 24 µM (active) | AC50 [21]: > 52 µM (inactive)

CCCCNC(=O)c1onc(CSc2cccc3ccccc23)c1C(=O)O
IC50 (Genome polyprotein): 49.6 µM (active)

CCOC(=O)c1c(CSc2ccc(CC)cc2)oc2ccc(O)c(CN(C)C)c12
EC50 [22]: > 30 µM (not active) | AC50 [23]: 30.8 µM (active) | AC50 [24]: 14.1 µM (active) | EC50 [9]: > 120 µM (not active) | EC50 [25]: 2.81 µM (active) | AC50 [3]: 15.3 µM (active) | EC50 [11]: > 120 µM (not active) | AC50 [26]: 3.05 µM (active) | EC50 [12]: > 120 µM (not active)

Cc1c(C(=O)N2CCOCC2)[nH]c2c1C(=O)CC(c1ccccc1Cl)C2 (stereo unspecified)
IC50 [13]: > 80 µM (inactive)

O=C1N=C(Nc2nc3ccccc3[nH]2)c2ccccc21
EC50 (BJ [7]): 12.5 µM (active) | EC50 (BJ [8]): 19.3 µM (active) | EC50 [10]: 14.9 µM (active) | AC50 (INS1): 3 µM (active) | EC50 [27]: 0.987 µM (inconclusive) | EC50 (BJ [14]): 24.8 µM (inconclusive)
